Measurements: US11780826B2 (Amgen Inc., priority 2017, dated 2023)

System: Bovine cardiac myofibrils
Assay: In vitro model of dose-dependent myofibril ATPase modulation (AC1.4, pyruvate kinase/lactate dehydrogenase-coupled ATPase assay at pCa25)
Type: biochemical
Conditions: concentration at which ATPase activity was 1.4-fold higher than the bottom of the dose curve, mean of a minimum of two independent tests
Outline: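 We measure calcium-buffered ATPase activity of detergent-skinned bovine cardiac myofibrils at pH 6.80 and 22° C with 1 mM ATP, using a PK/LDH-coupled NADH readout at 340 nm. Values come from four-parameter dose-response fits, averaged over at least two independent runs.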

Structure (SMILES): CC1(O)CN(S(=O)(=O)c2cccc(C(=O)N3CCC[C@@H]3C(=O)NCc3ccc(C(F)(F)F)cc3F)c2)C1 [Example 368, N-(2-fluoro-4-(trifluoromethyl)benzyl)-1-(3-((3-hydroxy-3-methyl-1-azetidinyl)sulfonyl)benzoyl)-D-prolinamide]
- AC1.4: 1.2 µM

Structure (SMILES): O=C(N[C@@H](c1cc(F)c(Cl)cc1F)C1COC1)[C@H]1C[C@H]2C[C@H]2N1C(=O)c1ccnc(C(F)(F)F)n1 [Example 500, (1R,3R,5R)-N-((R)-(4-chloro-2,5-difluorophenyl)(3-oxetanyl)methyl)-2-((2-(trifluoromethyl)-4-pyrimidinyl)carbonyl)-2-azabicyclo[3.1.0]hexane-3-carboxamide]
- AC1.4: 2.346 µM

Structure (SMILES): COCC(NC(=O)[C@H]1CCCN1C(=O)[C@H]1CCCN(S(=O)(=O)N2CC(C#N)C2)C1)c1ccc(Cl)cc1 (stereo partly drawn) [Example 97, N-(-1-(4-chlorophenyl)-2-methoxyethyl)-1-(((3S)-1-((3-cyano-1-azetidinyl)sulfonyl)-3-piperidinyl)carbonyl)-D-prolinamide]
- AC1.4: 0.1466 µM

Structure (SMILES): C[C@H](NC(=O)[C@H]1CCCN1C(=O)[C@H]1CCCN(S(=O)(=O)N2CC(C#N)C2)C1)c1ccc(Cl)c(F)c1 [Example 462, N-((1S)-1-(4-chloro-3-fluorophenyl)ethyl)-1-(((3S)-1-((3-cyano-1-azetidinyl)sulfonyl)-3-piperidinyl)carbonyl)-D-prolinamide]
- AC1.4: 1.9235 µM

Structure (SMILES): O=C(NCc1ccc(C(F)(F)F)cc1)[C@H]1CCCN1C(=O)c1cccc(S(=O)(=O)N2CCC2)c1 [Example 486, 1-(3-(l-azetidinylsulfonyl)benzoyl)-N-(4-(trifluoromethyl)benzyl)-D-prolinamide]
- AC1.4: 2.202 µM

Structure (SMILES): O=C(NCc1ccc(C(F)(F)F)cc1F)[C@H]1CCCN1C(=O)[C@H]1CCCN(S(=O)(=O)N2CC(n3ccnn3)C2)C1 [Example 151, N-(2-fluoro-4-(trifluoromethyl)benzyl)-1-(((3S)-1-((3-(1H-l,2,3-triazol-1-yl)-1-azetidinyl)sulfonyl)-3-piperidinyl)carbonyl)-D-prolinamide]
- AC1.4: 0.2616 µM

Structure (SMILES): Cc1ccc(F)cc1CNC(=O)[C@H]1CCCN1C(=O)[C@H]1CCCN(S(=O)(=O)N2CC(C#N)C2)C1 [Example 508, 1-(((3S)-1-((3-cyano-1-azetidinyl)sulfonyl)-3-piperidinyl)carbonyl)-N-(5-fluoro-2-methylbenzyl)-D-prolinamide]
- AC1.4: 2.3805 µM

Structure (SMILES): N#CC1CN(S(=O)(=O)N2CCC[C@H](C(=O)N3CCC[C@@H]3C(=O)NCc3ccc(Cl)nc3)C2)C1 [Example 613, N-((6-chloro-3-pyridinyl)methyl)-1-(((3S)-1-((3-cyano-1-azetidinyl)sulfonyl)-3-piperidinyl)carbonyl)-D-prolinamide]
- AC1.4: 3.8643 µM

Structure (SMILES): O=C(NCc1ccc(C(F)(F)F)cc1)[C@H]1CCCN1C(=O)c1cccc(S(=O)(=O)Cc2ccccc2)c1 [Example 454, 1-(3-(benzylsulfonyl)benzoyl)-N-(4-(trifluoromethyl)benzyl)-D-prolinamide]
- AC1.4: 1.8665 µM

Structure (SMILES): Cc1ccnc(C(=O)N2[C@@H](C(=O)N[C@@H](c3cc(F)c(Cl)cc3F)C3CC3)C[C@H]3C[C@H]32)c1 [Example 702, (1R,3R,5R)-N-((R)-(4-chloro-2,5-difluorophenyl)(cyclopropyl)methyl)-2-((4-methyl-2-pyridinyl)carbonyl)-2-azabicyclo[3.1.0]hexane-3-carboxamide]
- AC1.4: 5.6535 µM

Structure (SMILES): N#CC1CN(S(=O)(=O)N2CCC[C@H](C(=O)N3CCC[C@@H]3C(=O)N[C@H](CO)c3cccc(C(F)(F)F)c3)C2)C1 [Example 404, 1-(((3S)-1-((3-cyano-1-azetidinyl)sulfonyl)-3-piperidinyl)carbonyl)-N-((1S)-2-hydroxy-1-(3-(trifluoromethyl)phenyl)ethyl)-D-prolinamide]
- AC1.4: 1.4525 µM

Structure (SMILES): C[C@@H](NC(=O)[C@H]1CCCN1C(=O)[C@H]1CCCN(S(=O)(=O)N2CC(S(C)(=O)=O)C2)C1)c1ccc(Cl)cc1 [Example 150, N-((1R)-1-(4-chlorophenyl)ethyl)-1-(((3S)-1-((3-(methylsulfonyl)-1-azetidinyl)sulfonyl)-3-piperidinyl)carbonyl)-D-prolinamide]
- AC1.4: 0.2589 µM

Structure (SMILES): CCNc1ccc(C)cc1C(=O)N1[C@@H](C(=O)N[C@@H](c2ccc(C(F)(F)F)cc2F)C2COC2)C[C@H]2C[C@H]21 [Example 23, (1R,3R,5R)-2-(2-(ethylamino)-5-methylbenzoyl)-N-((R)-(2-fluoro-4-(trifluoromethyl)phenyl)(3-oxetanyl)methyl)-2-azabicyclo[3.1.0]hexane-3-carboxamide]
- AC1.4: 0.0287 µM

Structure (SMILES): N#CC1CN(S(=O)(=O)N2CCC[C@H](C(=O)N3CCC[C@@H]3C(=O)N[C@H](CCO)c3ccc(C(F)(F)F)cc3)C2)C1 [Example 36, 1-(((3S)-1-((3-cyano-1-azetidinyl)sulfonyl)-3-piperidinyl)carbonyl)-N-((1R)-3-hydroxy-1-(4-(trifluoromethyl)phenyl)propyl)-D-prolinamide]
- AC1.4: 0.03765 µM

Structure (SMILES): CS(=O)(=O)c1cncc(C(=O)N2C[C@H](C(F)F)C[C@@H]2C(=O)N[C@@H](c2ccc(C(F)(F)F)cc2F)C2CC2)c1 [Example 682, (4R)-N-((R)-cyclopropyl(2-fluoro-4-(trifluoromethyl)phenyl)methyl)-4-(difluoromethyl)-1-((5-(methylsulfonyl)-3-pyridinyl)carbonyl)-D-prolinamide]
- AC1.4: 4.606 µM

Structure (SMILES): COc1cccc(CNC(=O)[C@H]2CCCN2C(=O)[C@H]2CCCN(S(=O)(=O)N3CC(C#N)C3)C2)c1Cl [Example 583, N-(2-chloro-3-methoxybenzyl)-1-(((3S)-1-((3-cyano-1-azetidinyl)sulfonyl)-3-piperidinyl)carbonyl)-D-prolinamide]
- AC1.4: 3.3715 µM

Structure (SMILES): N#CC1CN(S(=O)(=O)N2CCC[C@H](C(=O)N3CCOC[C@@H]3C(=O)NCc3ccc(C(F)F)cc3)C2)C1 [Example 448, (3R)-4-(((3S)-1-((3-cyano-1-azetidinyl)sulfonyl)-3-piperidinyl)carbonyl)-N-(4-(difluoromethyl)benzyl)-3-morpholinecarboxamide]
- AC1.4: 1.844 µM

Structure (SMILES): CC(C)[C@H](NC(=O)[C@H]1CCCN1C(=O)[C@H]1CCCN(S(=O)(=O)N2CC(C#N)C2)C1)c1ccc(C(F)(F)F)cc1F [Example 229, 1-(((3S)-1-((3-cyano-1-azetidinyl)sulfonyl)-3-piperidinyl)carbonyl)-N-((1S)-1-(2-fluoro-4-(trifluoromethyl)phenyl)-2-methylpropyl)-D-prolinamide]
- AC1.4: 0.5053 µM

Structure (SMILES): CS(=O)(=O)c1cccc(C(=O)N2[C@@H](C(=O)N[C@@H](c3ccc(C(F)(F)F)cc3F)C3(O)CC3)C[C@H]3C[C@H]32)c1 [Example 559, (1R,3R,5R)-N-((S)-(2-fluoro-4-(trifluoromethyl)phenyl)(1-hydroxycyclopropyl)methyl)-2-(3-(methylsulfonyl)benzoyl)-2-azabicyclo[3.1.0]hexane-3-carboxamrde]
- AC1.4: 2.7115 µM

Structure (SMILES): N#CC1CN(S(=O)(=O)N2CCO[C@H](C(=O)N3CCC[C@@H]3C(=O)NCc3ccc(C(F)(F)F)cc3)C2)C1 [Example 149, 1-(((2S)-4-((3-cyano-1-azetidinyl)sulfonyl)-2-morpholinyl)carbonyl)-N-(4-(trifluoromethyl)benzyl)-D-prolinamide]
- AC1.4: 0.2589 µM
